Values of other authors, collected in patent US20100035949A1 (priority 2006, published 2010).

Tests used:
[1] = humans
[2] = pH dependent; decreases as pH increases from acidic to neutral

oral bioavailability ([1]; known dosage forms): about 25%
oral bioavailability, range ([1]; wide range with large inter- and intra-subject variabilities): 25-40%
permeability [2]: low
Structure (SMILES): CCCCC(=O)N(Cc1ccc(-c2ccccc2-c2nnn[nH]2)cc1)[C@H](C(=O)O)C(C)C [valsartan, (S)-N-valeryl-N-{[2′-(1H-tetrazole-5-yl)-biphenyl4-yl]-methyl}-valine]
